Columns and labels:
Format in all cases: in vivo
[1] = test system: Tetranychus urticae (spider mites - adult); experiment: Contact test, spider mites - adult (TUa), French bean leaf; conditions: 72 h, 3 days, read-out: TUA grading of mortality
Method in brief: (§1)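 Compound dissolved in acetone and diluted in water with 0.1% SYNPERONIC NX wetting agent to 100–500 ppm. Pests held on host plant or food medium, with pests and/or medium treated. Mortality scored 1–7 days after treatment.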

[2] = test system: Tetranychus urticae (spider mites - ova); experiment: Contact test, spider mites - ova (TUe), French bean leaf; conditions: 144 h, 6 days, read-out: TUE grading of mortality
Method in brief: as §1

Myzus persicae (aphids) = experiment: Contact test, aphids (MP), Chinese Cabbage leaf; conditions: 72 h, 3 days, read-out: MP grading of mortality
Method in brief: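 Aphids on a host plant and/or the plant itself were treated with 100–500 ppm of product, applied from acetone diluted in water containing 0.1% SYNPERONIC NX wetting agent. Mortality was scored usually one to seven days after treatment.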

[3] = test system: Nilaparvata lugens (brown plant hopper - nymphs); experiment: Contact test, brown plant hopper - nymphs (NL), Rice plant; conditions: 72 h, 3 days, read-out: NL grading of mortality
Method in brief: as §1

[4] = test system: Musca domestica (houseflies - adults); experiment: Knockdown test, houseflies - adults (MD/KD), Cotton wool/sugar; conditions: 4 hours, read-out: MD/KD grading of knockdown
Method in brief: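 Product was dissolved in acetone and diluted with water containing 0.1% wetting agent to 100–500 ppm. The flies and/or their food medium were treated with the preparation. Mortality was scored 1–7 days after treatment, with an additional knockdown assessment for houseflies.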

[5] = test system: Musca domestica (houseflies - adults); experiment: Contact test, houseflies - adults (MD), Cotton wool/sugar; conditions: 24 h, 1 day, read-out: MD grading of mortality
Method in brief: as §1

[6] = test system: Blattella germanica (cockroach nymphs); experiment: Residual test, cockroach nymphs (BG), Plastic pot; conditions: 72 h, 3 days, read-out: BG grading of mortality
Method in brief: as §1

[7] = test system: Heliothis virescens (tobacco budworm - larvae); experiment: Residual test, tobacco budworm - larvae (HV), Cotton leaf; conditions: 72 h, read-out: HV grading of mortality
Method in brief: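 Products applied as acetone solutions diluted in water with 0.1% wetting agent, at 100–500 ppm; pests on host plant or food, with pests and/or medium treated. Mortality or knockdown scored 1–7 days after treatment and graded A (80–100%), B (50–79%) or C (<50%).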

[8] = test system: Spodoptera exigua (lesser army worm - larvae); experiment: Residual test, lesser army worm - larvae (SP), Cotton leaf; conditions: 72 h, 3 days, read-out: SP grading of mortality
Method in brief: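 Compound dissolved in acetone and diluted in water with 0.1% Synperonic NX wetting agent to 100–500 ppm. Pests on host plant or food, with pests and/or medium treated. Mortality assessed 1–7 days after treatment and graded A (80–100%), B (50–79%) or C (<50%).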

[9] = test system: Diabrotica balteata (rootworm larvae); experiment: Residual test, rootworm larvae (DB), Filter paper/maize seed; conditions: 72 h, 3 days, read-out: DB grading of mortality
Method in brief: as §1

[10] = test system: Meloidogyne incognita (Tomato root knot eelworm - larvae); experiment: Residual test, Tomato root knot eelworm - larvae (MI), Semi in-vitro; conditions: 168 h, application rate is half that recorded, 7 days, read-out: MI grading of mortality; for mortality at 125 µg/mL: rate 250 ppm; for mortality at 250 µg/mL: rate column 500 ppm

Row | SMILES | mortality at 500 ppm [1] | mortality at 500 ppm [2] | mortality at 500 ppm (Myzus persicae (aphids)) | mortality at 500 ppm [3] | pest or weed control at 500 ppm [4] | mortality at 500 ppm [5] | mortality at 500 ppm [6] | mortality at 500 ppm [7] | mortality at 500 ppm [8] | mortality at 500 ppm [9] | mortality at 250 µg/mL [10] | other results
1 | Fc1ccc(C(CCCc2cccc(Oc3ccccc3)c2)C(F)(F)F)cc1 (racemic) [Compound 53, 1,1,1-Trifluoro-2-(4-fluorophenyl)-5-(3-phenoxyphenyl)pentane] |  |  |  |  |  |  |  |  |  |  |  | mortality at 250 ppm [1]: 80 to 100%; mortality at 250 ppm [2]: < 50%; mortality at 250 ppm (Myzus persicae (aphids)): 80 to 100%; mortality at 250 ppm [3]: 80 to 100%; pest or weed control at 250 ppm [4]: < 50%; mortality at 250 ppm [5]: 80 to 100%; mortality at 250 ppm [6]: 80 to 100%; mortality at 250 ppm [7]: 80 to 100%; mortality at 250 ppm [8]: 80 to 100%; mortality at 250 ppm [9]: 80 to 100%; mortality at 125 µg/mL [10]: < 50%
2 | COCc1ccc(C(=CCCc2cccc(Oc3ccccc3)c2)C(F)(F)F)cc1 [Compound 44, 1,1,1-Trifluoro-2-(4-methoxymethylphenyl)-5-(3-phenoxyphenyl)-pent-2-ene] | 80 to 100% | < 50% | < 50% | < 50% | < 50% | < 50% | < 50% | < 50% | 50 to 79% | < 50% | < 50% | 
3 | CCOc1ccc(C(=CC=Cc2cccc(Oc3ccccc3)c2)C(F)F)cc1 [Compound 65, 1,1-Difluoro-2-(4-ethoxyphenyl)-5-(3-phenoxyphenyl)penta-2,4-diene] | < 50% | < 50% | < 50% | < 50% | < 50% | < 50% | < 50% | < 50% | < 50% | < 50% | < 50% | 
4 | CCOc1ccc(C(CCC(C)c2cccc(Oc3ccccc3)c2)C(F)(F)F)cc1 (racemic) [Compound 55, 1,1,1-Trifluoro-2-(4-ethoxyphenyl)-5-(3-phenoxyphenyl)hexane] | < 50% | < 50% | 80 to 100% | 80 to 100% | 80 to 100% | 80 to 100% | 80 to 100% | 80 to 100% | 80 to 100% | 50 to 79% | < 50% | 
5 | CCOc1ccc(C(CC=Cc2cccc(Oc3ccccc3)n2)C(F)(F)F)cc1 (centres unmarked) [Compound 99, 1,1,1-Trifluoro-2-(4-ethoxyphenyl)-5-(6-phenoxypyrid-2-yl)pent-4-ene] | < 50% | < 50% | 50 to 79% | < 50% | 80 to 100% | 80 to 100% | < 50% | 80 to 100% | 50 to 79% | < 50% | < 50% | 
6 | CC1Oc2ccc(C(CCCc3cccc(Oc4ccccc4)c3)C(F)(F)F)cc2O1 (centres unmarked) [Compound 61, 1,1,1-Trifluoro-2-[3,4-(methylmethylenedioxy)-phenyl]-5-(3-phenoxyphenyl)pentane] | < 50% | < 50% | 80 to 100% | 80 to 100% | 80 to 100% | 80 to 100% | 80 to 100% | 80 to 100% | 80 to 100% | 80 to 100% | < 50% | 
7 | CCOc1c(F)cc(C(CCCc2ccc(F)c(Oc3ccccc3)c2)C(F)(F)F)cc1F (racemic) [Compound 64, 1,1,1-Trifluoro-2-(3,5-difluoro-4-ethoxyphenyl)-5-(4-fluoro-3-phenoxyphenyl)pentane] | 80 to 100% | 80 to 100% | 80 to 100% | 80 to 100% | 80 to 100% | 80 to 100% | 80 to 100% | 80 to 100% | 80 to 100% | 50 to 79% | < 50% | 
8 | CCOc1c(F)cc(C(CCCc2cccc(Oc3ccccc3)c2)C(F)(F)F)cc1F (racemic) [Compound 57, 1,1,1-Trifluoro-2-(3,5-difluoro-4-ethoxyphenyl)-5-(3-phenoxyphenyl)pentane] | 80 to 100% | 80 to 100% | 80 to 100% | 80 to 100% | 80 to 100% | 80 to 100% | 80 to 100% | 80 to 100% | 80 to 100% | 80 to 100% | < 50% | 
9 | CCOc1ccc(C(CCCc2cccc(Oc3ccccc3)c2)C(F)(F)F)cc1F (racemic) [Compound 56, 1,1,1-Trifluoro-2-(3-fluoro-4-ethoxyphenyl)-5-(3-phenoxyphenyl)pentane] | 80 to 100% | 80 to 100% | 80 to 100% | 80 to 100% | 80 to 100% | 80 to 100% | 80 to 100% | 80 to 100% | 80 to 100% | 80 to 100% | < 50% | 
10 | FC(F)(F)C(CCCc1cccc(Oc2ccccc2)c1)c1ccc2c(c1)CCC2 (racemic) [Compound 52, 1,1,1-Trifluoro-2-(5-indanyl)-5-(3-phenoxyphenyl)pentane] |  |  |  |  |  |  |  |  |  |  |  | mortality at 250 ppm [1]: 80 to 100%; mortality at 250 ppm [2]: < 50%; mortality at 250 ppm (Myzus persicae (aphids)): 50 to 79%; mortality at 250 ppm [3]: 80 to 100%; pest or weed control at 250 ppm [4]: < 50%; mortality at 250 ppm [5]: 50 to 79%; mortality at 250 ppm [6]: 80 to 100%; mortality at 250 ppm [7]: 80 to 100%; mortality at 250 ppm [8]: 80 to 100%; mortality at 250 ppm [9]: < 50%; mortality at 125 µg/mL [10]: < 50%
11 | FC(F)(F)C(CCCc1cccc(Oc2ccccc2)c1)c1ccc(OC(F)(F)C(F)(F)Br)cc1 (racemic) [Compound 68, 1,1,1-trifluoro-2-[4-(2-bromo-1,1,2,2-tetrafluoroethoxy)phenyl]-5-(3-phenoxyphenyl)-pentane] | 80 to 100% | 80 to 100% | < 50% | 80 to 100% | < 50% | < 50% | 80 to 100% | < 50% | 50 to 79% | 80 to 100% | < 50% | 
12 | Fc1cc(Br)c(C(=CC=Cc2cccc(Oc3ccccc3)c2)C(F)(F)F)c(F)c1OC(F)(F)F [Compound 74, 1,1,1-Trifluoro-2-(2-bromo-4,6-difluoro-5-trifluoromethoxyphenyl)-5-(3-phenoxyphenyl)penta-2,4-diene] | 50 to 79% | < 50% | < 50% | < 50% | < 50% | < 50% | < 50% | < 50% | < 50% | < 50% | < 50% | 
13 | FC(F)(F)Oc1ccc(C(=CC=Cc2cccc(Oc3ccccc3)c2)C(F)(F)Cl)cc1 [Compound 70, 1,1-Difluoro-1-chloro-2-(4-trifluoromethoxyphenyl)-5-(3-phenoxyphenyl)penta-2,4-diene] | < 50% | < 50% | < 50% | < 50% | < 50% | < 50% | < 50% | < 50% | < 50% | < 50% | 50 to 69% | 
